Measured values reported in article PMC11189555, “Aryl amino acetamides prevent Plasmodium falciparum ring development via targeting the lipid-transfer protein PfSTART1” (Nature Communications, 2024).
Read-outs that look alike come from different tables or passages of the source.

Test system: PopE F8 M-833 resistant clone (PfSTART1 N330K)
Test: Growth inhibition assay (72 h, LDH activity)
Type: cell-based, Plasmodium falciparum
Procedure: The drug was then removed, and parasites were allowed to recover. Another cycle of drug treatment (3 μM M-833) was then resumed. The resistant lines were cloned out by limiting dilution (diluting the culture into a 96-well plate to achieve an average of ~0.3 parasites per well), prior to growth inhibition assays and genomic DNA (gDNA) extraction (DNeasy Blood and Tissue kit (Qiagen)[18].
Parasite growth assays with inhibitory compounds were performed as per[11] and are fully described in the Supplementary Information.
Molecular biology and transfection of P. falciparum: CRISPR method.
The full 5’ homology region of pfstart1 (either WT, N309K or N330K) was amplified from pPfSTART1-HA-2A-Neo-glmS with the same 5’ BglII primer and a new 3’ primer that replaced with PstI with SpeI and introduced a stop codon. The PCR product was then digested with BglII and SpeI and inserted into similarly digested p1.2 parasite vector2. The p1.2 vector had previously been inserted with a homology region amplified from the 3’ end of the pfstart1 gene (3’HB) to form a second homology block for double recombination. The primers used to amplify 3’HB are listed primers listed in […]
60 μg of p1.2-PfSTART1(WT/N309K/N330K) plasmid was linearised with KasI, precipitated in 3 M sodium acetate and ethanol (70% final concentration) overnight at -20°C. The DNA pellet was washed in cold 70% ethanol and resuspended in cytomix 3.
50 μ M of crRNA ( Table S 2) and 50 μM of tracRNA (Integrated DNA Technologies) were allowed to form a duplex (5 min at 95°C), and Cas9 enzyme (Integrated DNA Technologies) was added, and incubated for 20 min at room temperature 4. This crRNA -tracRNA -Cas9 mix was added to each DNA preparation and transfected to 3D7 ring parasites using the Bio -Rad Gene Pulser at 310 V and 950 μF.
Parasites containing the transfected DNA were selected using 2.5 nM WR99210 (Jacobus). Parasites lines were cloned using limiting dilution. Correct integration was tested by PCR (using primer START_5’UTR.F and START_Int.R1 , Table S 2), and sequencing was done using the primers START_3F and START_Int.R2 (Table S 2).
Growth inhibition assays. Synchronised ring-stage parasites (0.3-0.6% parasitemia, 2% haematocrit) were grown for 72 h in a serial-dilution of the compound under […]
and compound 4. Note that M-833 was first purchased from MolPort (MolPort -002-267-916) then made in-house at WEHI: the differences observed in EC50s across experiments are attributed to the different batches of M -833. For some experiments, 0, 0.25 or 2.5 mM of glucosamine (GlcN) was also added. Experiments were set up in technical duplicates or triplicates. Following a freeze -thaw cycle, lactate dehydrogenase (LDH) activity was assessed as an indicator of parasite growt h 5. 30 μL of parasite culture was incubated for 30 min in the dark with 75 μL Malstat mixture (0.1 M Tris pH 9.0, 20 g/L lactic acid, pH 7.5, 0.2% Triton-X100, 0.5 g/L acetylpyridine adenine dinucleotide (APAD, Sigma), 200 μg/mL nitroblue tetrazolium (NBT; Sigma), 1 μg/mL phenozine ethosulfate (PES; Sigma)). Absorbance was then measured at 650 nm, transformed using the formula below, plotted against the logarithm of the concentrations, and a non-linear regression (log(inhibitor) vs. response, variable slope) was calculated using GraphPad Prism to assess the half-inhibitory […]
Growth inhibition % = (1 − average(sample)− average(uRBC)) ∗ 100 […]
The DMSO samples were also used to assess growth of parasite in the presence of 0.25 and 2.5 mM GlcN (normalised by DMSO in 0 mM GlcN).
Egress, invasion & recovery assay. To measure egress, invasion and follow up recovery in the presence of different compounds, we adapted the method developed in6, using Hyp1-Nluc parasites7. These parasites episomally express the exported PEXEL protein Hyp1 (PF3D7_0113300) tagged with a NanoLuc luciferase (NLuc) and were selected with 2.5 nM WR99210 (Jacobus). Highly synchronised schizonts were […]

Question: Which results are given for `Cc1cc(Cl)c(S(=O)(=O)N2CCCC2)cc1OCC(=O)NC1CCCCC1` [M-833]?
Answer: Normalised to DMSO (M-833 0.0390625 uM, Pop E-F8 replicate 1): 109.671; Normalised to DMSO (M-833 0.0390625 uM, PopE-F8 replicate 3): 109.081; Normalised to DMSO (M-833 0.078125 uM, Pop E-F8 replicate 1): 111.583; Normalised to DMSO (M-833 0.078125 uM, PopE-F8 replicate 3): 106.576; Normalised to DMSO (M-833 0.15625 uM, Pop E-F8 replicate 1): 105.619; Normalised to DMSO (M-833 0.15625 uM, PopE-F8 replicate 3): 106.576; Normalised to DMSO (M-833 0.3125 uM, Pop E-F8 replicate 1): 109.939; Normalised to DMSO (M-833 0.3125 uM, PopE-F8 replicate 3): 106.263; Normalised to DMSO (M-833 0.625 uM, Pop E-F8 replicate 1): 106.384; Normalised to DMSO (M-833 0.625 uM, PopE-F8 replicate 3): 108.612; Normalised to DMSO (M-833 1.25 uM, Pop E-F8 replicate 1): 102.255; Normalised to DMSO (M-833 1.25 uM, PopE-F8 replicate 3): 105.48; Normalised to DMSO (M-833 2.5 uM, Pop E-F8 replicate 1): 99.4266; Normalised to DMSO (M-833 2.5 uM, PopE-F8 replicate 3): 94.0501; Normalised to DMSO (M-833 5 uM, Pop E-F8 replicate 1): 83.5245; Normalised to DMSO (M-833 5 uM, PopE-F8 replicate 3): 74.6347; Normalised to DMSO (M-833 10 uM, Pop E-F8 replicate 1): 58.7156; Normalised to DMSO (M-833 10 uM, PopE-F8 replicate 3): 75.7307; inhibition at 0.0390625 µM (Plasmodium falciparum, M-833 0.0390625 uM, Pop E-F8 replicate 1, read-out: % Inhibition): -9.67%; inhibition at 0.0390625 µM (Plasmodium falciparum, M-833 0.0390625 uM, PopE-F8 replicate 3, read-out: % Inhibition): -9.08%; inhibition at 0.078125 µM (Plasmodium falciparum, M-833 0.078125 uM, Pop E-F8 replicate 1, read-out: % Inhibition): -11.6%; inhibition at 0.078125 µM (Plasmodium falciparum, M-833 0.078125 uM, PopE-F8 replicate 3, read-out: % Inhibition): -6.58%; inhibition at 0.15625 µM (Plasmodium falciparum, M-833 0.15625 uM, Pop E-F8 replicate 1, read-out: % Inhibition): -5.62%; inhibition at 0.15625 µM (Plasmodium falciparum, M-833 0.15625 uM, PopE-F8 replicate 3, read-out: % Inhibition): -6.58%; inhibition at 0.3125 µM (Plasmodium falciparum, M-833 0.3125 uM, Pop E-F8 replicate 1, read-out: % Inhibition): -9.94%; inhibition at 0.3125 µM (Plasmodium falciparum, M-833 0.3125 uM, PopE-F8 replicate 3, read-out: % Inhibition): -6.26%; inhibition at 0.625 µM (Plasmodium falciparum, M-833 0.625 uM, Pop E-F8 replicate 1, read-out: % Inhibition): -6.38%; inhibition at 0.625 µM (Plasmodium falciparum, M-833 0.625 uM, PopE-F8 replicate 3, read-out: % Inhibition): -8.61%; inhibition at 1.25 µM (Plasmodium falciparum, M-833 1.25 uM, Pop E-F8 replicate 1, read-out: % Inhibition): -2.26%; inhibition at 1.25 µM (Plasmodium falciparum, M-833 1.25 uM, PopE-F8 replicate 3, read-out: % Inhibition): -5.48%; inhibition at 2.5 µM (Plasmodium falciparum, M-833 2.5 uM, Pop E-F8 replicate 1, read-out: % Inhibition): 0.573%; inhibition at 2.5 µM (Plasmodium falciparum, M-833 2.5 uM, PopE-F8 replicate 3, read-out: % Inhibition): 5.95%; inhibition at 5 µM (Plasmodium falciparum, M-833 5 uM, Pop E-F8 replicate 1, read-out: % Inhibition): 16.5%; inhibition at 5 µM (Plasmodium falciparum, M-833 5 uM, PopE-F8 replicate 3, read-out: % Inhibition): 25.4%; inhibition at 10 µM (Plasmodium falciparum, M-833 10 uM, Pop E-F8 replicate 1, read-out: % Inhibition): 41.3%; inhibition at 10 µM (Plasmodium falciparum, M-833 10 uM, PopE-F8 replicate 3, read-out: % Inhibition): 24.3%; inhibition at 0.0390625 µM (Plasmodium falciparum, Pop E-F8 replicate 1, M-833 0.0390625 uM): -1.3%; inhibition at 0.078125 µM (Plasmodium falciparum, Pop E-F8 replicate 1, M-833 0.078125 uM): -1.67%; inhibition at 0.15625 µM (Plasmodium falciparum, Pop E-F8 replicate 1, M-833 0.15625 uM): 1.93%; inhibition at 0.3125 µM (Plasmodium falciparum, Pop E-F8 replicate 1, M-833 0.3125 uM): 3.08%; inhibition at 0.625 µM (Plasmodium falciparum, Pop E-F8 replicate 1, M-833 0.625 uM): 3.36%; inhibition at 1.25 µM (Plasmodium falciparum, Pop E-F8 replicate 1, M-833 1.25 uM): 4.32%; inhibition at 2.5 µM (Plasmodium falciparum, Pop E-F8 replicate 1, M-833 2.5 uM): 11.8%; inhibition at 5 µM (Plasmodium falciparum, Pop E-F8 replicate 1, M-833 5 uM): 18.8%; inhibition at 10 µM (Plasmodium falciparum, Pop E-F8 replicate 1, M-833 10 uM): 41%; EC50 (Plasmodium falciparum, read-out: EC50 (95% confidence interval)): > 10 µM; Normalised to DMSO (Pop E-F8 replicate 1, M-833 0.0390625 uM): 101.305; Normalised to DMSO (Pop E-F8 replicate 1, M-833 0.078125 uM): 101.672; Normalised to DMSO (Pop E-F8 replicate 1, M-833 0.15625 uM): 98.0669; Normalised to DMSO (Pop E-F8 replicate 1, M-833 0.3125 uM): 96.9165; Normalised to DMSO (Pop E-F8 replicate 1, M-833 0.625 uM): 96.6437; Normalised to DMSO (Pop E-F8 replicate 1, M-833 1.25 uM): 95.6831; Normalised to DMSO (Pop E-F8 replicate 1, M-833 2.5 uM): 88.1997; Normalised to DMSO (Pop E-F8 replicate 1, M-833 5 uM): 81.2026; Normalised to DMSO (Pop E-F8 replicate 1, M-833 10 uM): 58.9777
